Test results published in PubChem BioAssay (NCI).
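The compound was tested at five concentrations on cells cultured in 96-well plates, with a 48-hour exposure period. The concentration for 50% growth inhibition is given as GI50. The concentration for full growth arrest is given as TGI.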

Assays:
Assay in all cases: inhibition of tumour cell growth, NCI panel, 48 h
786-0 renal = system: 786-0 renal
A498 renal = system: A498 renal
A549 NSCLC = system: A549 NSCLC
ACHN renal = system: ACHN renal
BT-549 breast = system: BT-549 breast
CAKI-1 renal = system: CAKI-1 renal
COLO 205 colon = system: COLO 205 colon
DU-145 prostate = system: DU-145 prostate
EKVX NSCLC = system: EKVX NSCLC
HCC-2998 colon = system: HCC-2998 colon
HCT-116 colon = system: HCT-116 colon
HCT-15 colon = system: HCT-15 colon
HOP-92 NSCLC = system: HOP-92 NSCLC
HT29 colon = system: HT29 colon
IGROV1 ovarian = system: IGROV1 ovarian
K-562 leukemia = system: K-562 leukemia
KM12 colon = system: KM12 colon
M14 melanoma = system: M14 melanoma
MALME-3M melanoma = system: MALME-3M melanoma
MCF7 breast = system: MCF7 breast
MDA-MB-231 breast = system: MDA-MB-231 breast
MDA-MB-435 = system: MDA-MB-435
MOLT-4 leukemia = system: MOLT-4 leukemia
NCI-H226 lung = system: NCI-H226 lung
NCI-H23 lung = system: NCI-H23 lung
NCI-H460 lung = system: NCI-H460 lung
NCI-H522 lung = system: NCI-H522 lung
NCI/ADR-RES ovarian = system: NCI/ADR-RES ovarian
OVCAR-4 ovarian = system: OVCAR-4 ovarian
OVCAR-5 ovarian = system: OVCAR-5 ovarian
PC-3 prostate = system: PC-3 prostate
RPMI-8226 leukemia = system: RPMI-8226 leukemia
RXF 393 renal = system: RXF 393 renal
SF-268 CNS = system: SF-268 CNS
SF-295 CNS = system: SF-295 CNS
SK-MEL-2 melanoma = system: SK-MEL-2 melanoma
SK-MEL-28 melanoma = system: SK-MEL-28 melanoma
SK-MEL-5 melanoma = system: SK-MEL-5 melanoma
SK-OV-3 ovarian = system: SK-OV-3 ovarian
SN12C renal = system: SN12C renal
SNB-19 CNS = system: SNB-19 CNS
SNB-75 CNS = system: SNB-75 CNS
SW-620 colon = system: SW-620 colon
TK-10 renal = system: TK-10 renal
U251 CNS = system: U251 CNS
UACC-257 melanoma = system: UACC-257 melanoma
UACC-62 melanoma = system: UACC-62 melanoma
UO-31 renal = system: UO-31 renal
CCRF-CEM leukemia = system: CCRF-CEM leukemia
HL-60(TB) leukemia = system: HL-60(TB) leukemia
HOP-62 NSCLC = system: HOP-62 NSCLC
HS 578T breast = system: HS 578T breast
LOX IMVI melanoma = system: LOX IMVI melanoma
OVCAR-3 ovarian = system: OVCAR-3 ovarian
OVCAR-8 ovarian = system: OVCAR-8 ovarian
SF-539 CNS = system: SF-539 CNS
T-47D breast = system: T-47D breast

With `Nn1c(CCCCCCCCc2nnc(COc3ccc4ccccc4c3O)n2N)nnc1COc1ccc2ccccc2c1O` the TGI (786-0 renal) was greater than 100 µM, the TGI (A498 renal) was greater than 100 µM and the TGI (A549 NSCLC) was greater than 100 µM. It also gave a TGI (ACHN renal) greater than 100 µM, a TGI (BT-549 breast) of 69.5 µM and a TGI (CAKI-1 renal) of 41.8 µM. For the same molecule, the TGI (COLO 205 colon) was 35.1 µM, the TGI (DU-145 prostate) was greater than 100 µM and the TGI (EKVX NSCLC) was greater than 100 µM. For the same molecule, the TGI (HCC-2998 colon) was 67.7 µM, the TGI (HCT-116 colon) was 29.3 µM and the TGI (HCT-15 colon) was greater than 100 µM. The TGI (HOP-92 NSCLC) was 60 µM, the TGI (HT29 colon) was greater than 100 µM and the TGI (IGROV1 ovarian) was 38.3 µM. The TGI (K-562 leukemia) was greater than 100 µM, the TGI (KM12 colon) was 49.4 µM and the TGI (M14 melanoma) was 78.4 µM. It also gave a TGI (MALME-3M melanoma) greater than 100 µM, a TGI (MCF7 breast) greater than 100 µM and a TGI (MDA-MB-231 breast) of 76.9 µM. It also gave a TGI (MDA-MB-435) greater than 100 µM, a TGI (MOLT-4 leukemia) greater than 100 µM and a TGI (NCI-H226 lung) of 79.1 µM. The TGI (NCI-H23 lung) was 41.6 µM, the TGI (NCI-H460 lung) was greater than 100 µM and the TGI (NCI-H522 lung) was 42 µM. It also gave a TGI (NCI/ADR-RES ovarian) of 60.7 µM, a TGI (OVCAR-4 ovarian) greater than 100 µM and a TGI (OVCAR-5 ovarian) of 37 µM. For the same molecule, the TGI (PC-3 prostate) was greater than 100 µM, the TGI (RPMI-8226 leukemia) was 99.2 µM and the TGI (RXF 393 renal) was 80.3 µM. For the same molecule, the TGI (SF-268 CNS) was greater than 100 µM, the TGI (SF-295 CNS) was 98.1 µM and the TGI (SK-MEL-2 melanoma) was greater than 100 µM. For the same molecule, the TGI (SK-MEL-28 melanoma) was greater than 100 µM, the TGI (SK-MEL-5 melanoma) was 37.5 µM and the TGI (SK-OV-3 ovarian) was greater than 100 µM. For the same molecule, the TGI (SN12C renal) was greater than 100 µM, the TGI (SNB-19 CNS) was greater than 100 µM and the TGI (SNB-75 CNS) was greater than 100 µM. It also gave a TGI (SW-620 colon) greater than 100 µM, a TGI (TK-10 renal) greater than 100 µM and a TGI (U251 CNS) greater than 100 µM. It also gave a TGI (UACC-257 melanoma) greater than 100 µM, a TGI (UACC-62 melanoma) greater than 100 µM and a TGI (UO-31 renal) greater than 100 µM.

Work on `Cc1cc(O)cc2c1[C@]1(C)CCC3C(C)(C)CCC[C@]3(C)[C@H]1C2` (some centres not stated) yielded a GI50 (786-0 renal) of 19.4 µM, a TGI (786-0 renal) of 34.3 µM and a GI50 (A498 renal) of 23.2 µM. It also gave a TGI (A498 renal) of 39.1 µM, a GI50 (A549 NSCLC) of 22.7 µM and a TGI (A549 NSCLC) of 42.1 µM. The GI50 (ACHN renal) was 19.1 µM, the TGI (ACHN renal) was 33.3 µM and the GI50 (BT-549 breast) was 21.6 µM. It also gave a TGI (BT-549 breast) of 38.6 µM, a GI50 (CAKI-1 renal) of 18.1 µM and a TGI (CAKI-1 renal) of 31.9 µM. For the same molecule, the GI50 (CCRF-CEM leukemia) was 29.6 µM, the TGI (CCRF-CEM leukemia) was 92 µM and the GI50 (COLO 205 colon) was 18.8 µM. For the same molecule, the TGI (COLO 205 colon) was 34 µM, the GI50 (DU-145 prostate) was 19.1 µM and the TGI (DU-145 prostate) was 35 µM. The GI50 (EKVX NSCLC) was 19.9 µM, the TGI (EKVX NSCLC) was 36.6 µM and the GI50 (HCC-2998 colon) was 22.1 µM. For the same molecule, the TGI (HCC-2998 colon) was 38 µM, the GI50 (HCT-116 colon) was 19 µM and the TGI (HCT-116 colon) was 33 µM. For the same molecule, the GI50 (HCT-15 colon) was 19.9 µM, the TGI (HCT-15 colon) was 38.1 µM and the GI50 (HL-60(TB) leukemia) was 32.4 µM. The TGI (HL-60(TB) leukemia) was greater than 100 µM, the GI50 (HOP-62 NSCLC) was 20.6 µM and the TGI (HOP-62 NSCLC) was 35.5 µM. For the same molecule, the GI50 (HOP-92 NSCLC) was 18.4 µM, the TGI (HOP-92 NSCLC) was 35.3 µM and the GI50 (HS 578T breast) was 22.6 µM. The TGI (HS 578T breast) was 44.6 µM, the GI50 (HT29 colon) was 18.5 µM and the TGI (HT29 colon) was 35.5 µM. For the same molecule, the GI50 (IGROV1 ovarian) was 20.5 µM, the TGI (IGROV1 ovarian) was 36.9 µM and the GI50 (K-562 leukemia) was 67.4 µM. It also gave a TGI (K-562 leukemia) greater than 100 µM, a GI50 (KM12 colon) of 20 µM and a TGI (KM12 colon) of 35.3 µM. For the same molecule, the GI50 (LOX IMVI melanoma) was 19.5 µM, the TGI (LOX IMVI melanoma) was 35.8 µM and the GI50 (M14 melanoma) was 21.6 µM. It also gave a TGI (M14 melanoma) of 37.6 µM, a GI50 (MALME-3M melanoma) of 23.2 µM and a TGI (MALME-3M melanoma) of 39.4 µM. It also gave a GI50 (MCF7 breast) of 18.6 µM, a TGI (MCF7 breast) of 33.3 µM and a GI50 (MDA-MB-231 breast) of 22 µM. The TGI (MDA-MB-231 breast) was 38.5 µM, the GI50 (MDA-MB-435) was 18.8 µM and the TGI (MDA-MB-435) was 33.4 µM. For the same molecule, the GI50 (MOLT-4 leukemia) was 28.1 µM, the TGI (MOLT-4 leukemia) was 98.6 µM and the GI50 (NCI-H226 lung) was 22.4 µM. The TGI (NCI-H226 lung) was 41.4 µM, the GI50 (NCI-H23 lung) was 22.5 µM and the TGI (NCI-H23 lung) was 42 µM. For the same molecule, the GI50 (NCI-H460 lung) was 20.6 µM, the TGI (NCI-H460 lung) was 37.1 µM and the GI50 (NCI-H522 lung) was 20.8 µM. For the same molecule, the TGI (NCI-H522 lung) was 38.9 µM, the GI50 (NCI/ADR-RES ovarian) was 21.4 µM and the TGI (NCI/ADR-RES ovarian) was 39.8 µM. For the same molecule, the GI50 (OVCAR-3 ovarian) was 19.2 µM, the TGI (OVCAR-3 ovarian) was 33.5 µM and the GI50 (OVCAR-4 ovarian) was 17.5 µM. It also gave a TGI (OVCAR-4 ovarian) of 33.8 µM, a GI50 (OVCAR-5 ovarian) of 21.4 µM and a TGI (OVCAR-5 ovarian) of 37.2 µM. The GI50 (OVCAR-8 ovarian) was 26.1 µM, the TGI (OVCAR-8 ovarian) was 54.8 µM and the GI50 (PC-3 prostate) was 24.7 µM. The TGI (PC-3 prostate) was 65.1 µM, the GI50 (RPMI-8226 leukemia) was 29.6 µM and the TGI (RPMI-8226 leukemia) was 74.7 µM. For the same molecule, the GI50 (RXF 393 renal) was 25 µM, the TGI (RXF 393 renal) was 50.4 µM and the GI50 (SF-268 CNS) was 21 µM. The TGI (SF-268 CNS) was 39.4 µM, the GI50 (SF-295 CNS) was 20.3 µM and the TGI (SF-295 CNS) was 36 µM. It also gave a GI50 (SF-539 CNS) of 20.6 µM, a TGI (SF-539 CNS) of 37.9 µM and a GI50 (SK-MEL-2 melanoma) of 26.2 µM. The TGI (SK-MEL-2 melanoma) was 52.7 µM, the GI50 (SK-MEL-28 melanoma) was 20.4 µM and the TGI (SK-MEL-28 melanoma) was 36.7 µM. It also gave a GI50 (SK-MEL-5 melanoma) of 19.1 µM, a TGI (SK-MEL-5 melanoma) of 33.2 µM and a GI50 (SK-OV-3 ovarian) of 21.9 µM. It also gave a TGI (SK-OV-3 ovarian) of 38.6 µM, a GI50 (SN12C renal) of 17.2 µM and a TGI (SN12C renal) of 32.3 µM. The GI50 (SNB-19 CNS) was 20.8 µM, the TGI (SNB-19 CNS) was 35.7 µM and the GI50 (SNB-75 CNS) was 17.9 µM. The TGI (SNB-75 CNS) was 34.2 µM, the GI50 (SW-620 colon) was 18.5 µM and the TGI (SW-620 colon) was 33.6 µM. It also gave a GI50 (T-47D breast) of 16.7 µM, a TGI (T-47D breast) of 43.3 µM and a GI50 (TK-10 renal) of 18.7 µM. The TGI (TK-10 renal) was 36.4 µM, the GI50 (U251 CNS) was 19.2 µM and the TGI (U251 CNS) was 33.5 µM. For the same molecule, the GI50 (UACC-257 melanoma) was 23.6 µM, the TGI (UACC-257 melanoma) was 41.3 µM and the GI50 (UACC-62 melanoma) was 18.6 µM. It also gave a TGI (UACC-62 melanoma) of 33.2 µM, a GI50 (UO-31 renal) of 20.5 µM and a TGI (UO-31 renal) of 36.4 µM.
